Reference: patent publication US11571441B2, “Sideroflexins as mitochondrial serine transporters” (Whitehead Institute for Biomedical Research, priority 2018, dated 2023)
Entries after “also recorded” stand apart in the source; their conditions may differ. Read-outs that look alike come from different tables or passages of the source.

T1: SFXN1 (Homo sapiens, UniProt Q9H9B4)
T1 construct: made in house
T1 sequence (Q9H9B4 1-322): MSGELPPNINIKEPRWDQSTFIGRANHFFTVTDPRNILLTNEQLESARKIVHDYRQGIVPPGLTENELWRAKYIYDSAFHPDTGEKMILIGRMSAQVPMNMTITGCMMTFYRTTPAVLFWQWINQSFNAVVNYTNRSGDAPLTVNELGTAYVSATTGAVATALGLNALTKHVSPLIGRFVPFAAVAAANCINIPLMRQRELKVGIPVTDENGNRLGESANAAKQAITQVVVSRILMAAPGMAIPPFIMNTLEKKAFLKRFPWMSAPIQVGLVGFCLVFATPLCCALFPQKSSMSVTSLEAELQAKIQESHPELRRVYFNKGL


Columns and labels:
SFXN1 [1] = molecular target: T1, SFXN1; test: In vitro transport assay: [3H] serine/alanine uptake into SFXN1 proteoliposomes; format: biochemical; conditions: for competition of serine uptake by different metabolites (FIG. 3C) / competition of serine uptake by different metabolites (FIG. 3B): after 60 min, SFXN1 liposomes; for competition of serine uptake by different metabolites (FIG. 3C): metabolites at 500 μM; for Km: steady-state kinetic analysis, proteoliposomes
Experimental: (§1) In vitro transport assays were performed as described previously with the following specifications. Flag-SFXN1 was purified from 293T cells stably expressing the protein using FLAG-affinity purification and eluted off beads with FLAG peptide.
(§2) 1% Phosphatidylcholine was added to total E. coli lipids in chloroform, evaporated under nitrogen and desiccated overnight. Dried lipids were hydrated in inside buffer (20 mM MES pH 7, 50 mM NaCl, 20 mM KCl) by freeze-thawing in liquid nitrogen 20× times. Lipids were extruded 6× though a 0.4 μm filter and 15× through a 0.1 μm filter. 15 ug of purified SFXN1 protein were reconstituted into 1.2 mg liposomes using a detergent:lipid ratio of 5:1 with the addition of 1 mM DTT in inside buffer rotating at 4 degree for 1 hour. The proteoliposomes were incubated for 3 sequential rounds with Bio-beads to remove detergent. A liposome-only control was prepared by replacing the protein with inside buffer in the reconstitution reaction. Incorporation of protein into liposomes was assessed using glycerol gradient centrifugation. A buffer containing 20 mM Tris-HCL pH 7.4 and 100 mM NaCl was used as outside buffer in transport reactions.
In vitro transport assays were performed as described previously (43, 44) with the following specifications. FLAG-SFXN1 was purified from HEK-293T cells stably expressing the protein using FLAG-affinity purification and eluted off the beads with the FLAG peptide.
1% Phosphatidylcholine was added to total E. coli lipids in chloroform, evaporated under nitrogen and desiccated overnight. Dried lipids were hydrated in inside buffer (20 mM MES pH 7, 50 mM NaCl, 20 mM KCl) by freeze-thawing in liquid nitrogen 20× times. Lipids were extruded 6× through a 0.4 μm filter and 15× through a 0.1 μm filter. 15 μg of purified SFXN1 protein were reconstituted into 1.2 mg liposomes using a detergent:lipid ratio of 5:1 with the addition of 1 mM DTT in inside buffer rotating at 4° C. for 1 hour. The proteoliposomes were incubated for 3 sequential rounds with Bio-Beads to remove detergent. A liposome-only control was prepared by replacing the protein with inside buffer in the reconstitution reaction. Incorporation of protein into liposomes was assessed using a glycerol gradient centrifugation assay. [3H] […] Different lots of total E. coli lipid extracts were tested and ones that optimally preserved SFXN1 activity were used in experiments.

SFXN1 [2] = test: Amino acid uptake into mitochondria isolated from wild-type or SFXN1-null Jurkat cells; format: biochemical, human; conditions: 0.75 μM [3H] serine or 3 μM [3H] glutamate, 30° C.
Experimental: Mitochondria from wild-type or SFXN1-null Jurkat cells were prepared according to (45). Briefly, cells (˜1 g starting material) were resuspended in low tonicity buffer (100 mM sucrose, 10 mM MOPS pH 7.2, 1 mM EGTA, 0.1% BSA) and disrupted with 20 strokes in a homogenizer containing a pure PTFE head (VWR International) and two strokes with a dounce tissue grinder with tight-fitting pestle (DWK Life Sciences Kimbl Kontes). After adjusting tonicity, lysates were spun twice at 950×g to remove unbroken cells and nuclei, and mitochondria were pelleted by centrifuging at 10,000×g for 10 min. […] Mitochondrial preparations were adjusted for protein content. […] 50 μl samples were collected immediately after start of the reaction and at 1, 2, 3 mins and added to mixed cellulose-ester filters (Fisher Scientific, 0.22 μm pore size) connected to a vacuum line (adapted from (47)). Filters were washed with 3 mL of ice cold TBS and the radioactivity remaining on the filters was measured using a scintillation counter. Blank reaction samples, in which mitochondria were replaced with incubation media, were used to subtract the background. The uptake rate was calculated from the first two minutes of the reaction.

[3] = test system: SFXN1-null cells (Jurkat and K562); test: Cell proliferation assay (Cell titer glo) in serine-deficient media, formate rescue; format: cell-based, human; conditions: 1 mM formate added, 4 days
Experimental: (§3) 10,000 cells per well were seeded into 96 well plates in triplicate. Cell titer glo reagent (Promega) was added to one plate immediately after seeding and luminescence was measured, while a second plate was read-out 4 days after seeding. Number of doublings in 4 days was determined by calculating the log2 fold-change in signal between day 0 and 4. For formate rescue experiments, 1 mM formate was added to cells at time of seeding (Jurkat cells) or cells were cultured in formate-containing media for 1 week prior to the experiment (K562 cells) unless indicated otherwise.
(§4) 10,000 cells per well were seeded into 96-well plates in triplicate. Cell titer glo reagent (Promega) was added to one plate immediately after seeding and luminescence was measured, while a second plate was read-out 4 days after seeding. Number of doublings in 4 days was determined by calculating the log2 fold-change in signal between day 0 and 4. For formate rescue experiments, 1 mM formate was added to media at the time of seeding (Jurkat cells) or cells were cultured in formate-containing media for 1 week prior to the experiment (K562 cells) unless indicated otherwise.

SFXN1-null Jurkat cells = test: LC-MS metabolite quantification (purine synthesis intermediates, serine, glycine) in SFXN1-null cells; format: cell-based, human; conditions: 1 mM formate, 24 hours in indicated media
Experimental: Quantification of metabolite abundance using LC/MS-based metabolomics was performed and analyzed as previously described. Briefly, Jurkat or K562 cells were seeded at densities of 0.6×10^6 per ml and 0.33×10^6 per ml, respectively. 24 h later, 2×10^6 Jurkat or 1×10^6 K562 cells were harvested, washed once in ice-cold 0.9% saline prepared with LC-MS grade H2O, and extracted with 80% methanol containing 500 nM isotope-labeled amino acids as internal standards (Cambridge Isotope Laboratories). The samples were vortexed for 10 min at 4° C. and spun down at 17,000×g. The supernatant was dried by vacuum centrifugation at 4° C. Samples were stored at −80° C. until analyzed. On the day of analysis, samples were resuspended in 50-100 μL of LC/MS grade water and the insoluble fraction was cleared by centrifugation at 15,000 rpm. The supernatant was then analyzed as previously described by LC/MS (21, 33). […]
Metabolite abundance using LC/MS-based metabolomics was measured and quantified as previously described (15). […] Samples were stored at −80° C. until analyzed. […] The supernatant was then analyzed as previously described by LC-MS (15, 38) Amino acids were normalized to their respective internal standards, purine synthesis intermediates were normalized to the glutamate internal standard. […]

[4] = test system: SFXN1/3-null Jurkat cells; test: Cell proliferation assay in glycine-deficient media, formate rescue; format: cell-based, human; conditions: 1 mM formate, cells cultured with it 2 days before the experiment
Experimental: as §3, §4

[5] = substrate: C[C@H](N)C(=O)O; test: purified protein, by the assay type; conditions: other: steady-state kinetic analysis; proteoliposomes
[6] = substrate: N[C@@H](CO)C(=O)O; test: purified protein, by the assay type; format: biochemical, human; conditions: other: steady-state kinetic analysis; proteoliposomes; [3H] serine 1 μM with increasing unlabeled serine
Experimental: as §1
as §2, with “reactions. […]” for “reactions.”
1% Phosphatidylcholine was added to total E. coli lipids in chloroform, evaporated under nitrogen and desiccated overnight. […] Incorporation of protein into liposomes was assessed using a glycerol gradient centrifugation assay. […]

Molecule | competition of serine uptake by different metabolites (FIG. 3C) (SFXN1 [1]) | competition of serine uptake by different metabolites (FIG. 3B) (SFXN1 [1]) | other results
N[C@@H](CS)C(=O)O [cysteine] | competed with the transport of the labelled serine; also recorded: partially competed with serine |  | 
O=C(O)CC(O)(CC(=O)O)C(=O)O [citrate] | Neither formate nor citrate competed with serine transport; also recorded: does not compete with serine |  | 
NCC(=O)O [glycine] | competed with the transport of the labelled serine; also recorded: partially competed with serine |  | 
C[C@H](N)C(=O)O [alanine] | competed with the transport of the labelled serine; also recorded: partially competed with serine | able to complete serine uptake | Km (SFXN1 [1]; read-out: Km of SFXN1-mediated alanine transport): ~371 µM
N[C@@H](CO)C(=O)O [serine] |  |  | Km (SFXN1 [1]; [3H] serine 1 μM with increasing unlabeled serine, read-out: Km of SFXN1-mediated serine transport): 170 µM; radioactive amino acid uptake into mitochondria from SFXN1-null cells compared to wild-type (SFXN1 [2]): reduced
O=CO [formate] | Neither formate nor citrate competed with serine transport | not able to complete serine uptake | rescue of proliferation of SFXN1-null cells in serine-deficient media [3]: completely restored growth of SFXN1-null cells; also recorded: completely reversed the slow proliferation; also recorded: rescues growth; accumulation of purine synthesis intermediates (GAR, SAICAR, AICAR) in SFXN1-null cells (SFXN1-null Jurkat cells): completely abolish their accumulation; also recorded: abolished the accumulation of the intermediates; also recorded: reverses the accumulation of purine synthesis intermediates; glycine levels and serine/glycine ratio of SFXN1-null cells (SFXN1-null Jurkat cells): without rescuing the cellular serine and glycine levels; also recorded: did not rescue the defects in glycine levels; also recorded: does not rescue glycine levels and serine/glycine ratio; rescue of proliferation of SFXN1/3-null cells in the absence of glycine [4]: unable to rescue the growth defect; also recorded: did not reverse their proliferation defect; also recorded: does not rescue proliferation
N[C@@H](CO)C(=O)O [L-serine] | competed with the transport of the labelled serine | able to complete serine uptake | 
N[C@H](CO)C(=O)O [D-serine] | competed with the transport of the labelled serine | able to complete serine uptake | 
N[C@@H](CCC(=O)O)C(=O)O [glutamate] |  |  | radioactive amino acid uptake into mitochondria from SFXN1-null cells compared to wild-type (SFXN1 [2]): unaffected; also recorded: unchanged
SFXN1 (Homo sapiens) (protein, made in house) MSGELPPNINIKEPRWDQSTFIGRANHFFTVTDPRNILLTNEQLESARKIVHDYRQGIVPPGLTENELWRAKYIYDSAFHPDTGEKMILIGRMSAQVPMNMTITGCMMTFYRTTPAVLFWQWINQSFNAVVNYTNRSGDAPLTVNELGTAYVSATTGAVATALGLNALTKHVSPLIGRFVPFAAVAAANCINIPLMRQRELKVGIPVTDENGNRLGESANAAKQAITQVVVSRILMAAPGMAIPPFIMNTLEKKAFLKRFPWMSAPIQVGLVGFCLVFATPLCCALFPQKSSMSVTSLEAELQAKIQESHPELRRVYFNKGL |  |  | Km [5]: 371 µM; Km [6]: 170 µM; Vmax [6]: 8.2 pmol/min
